Assay results from patent publication US20250368638A1, “BICYCLIC INHIBITORS OF NICOTINAMIDE […], COMPOSITIONS AND USES THEREOF” (President and Fellows of Harvard College, priority 2021, published 2025).
Values joined by “and” are separate entries in the source; they are usually repeats but may differ in a detail not shown here. Identical values can stand only once.

Experiments:
[1] = FIG. 19
Procedure: Table printed on a drawing sheet, FIG. 19
Footnotes: %Q: The percent of compound remaining after 60 minutes of exposure to liver microsomes
The patent's description of the figure: FIG. 19 is a table summarizing PK/PD data for compounds 1 to 3 and 11.
First reader's note: The CL value of Compound 11 (36.1) is boxed on the sheet.

[2] = target: T1, recombinant human NNMT (Homo sapiens, UniProt P40261); assay: in vitro NNMT enzyme inhibition assay (Promega MTase-Glo Methyltransferase Assay); type: biochemical; conditions: 40 nM recombinant human NNMT, 8 μM nicotinamide, 6.7 μM SAM, 20 minutes
T1 sequence (P40261 1-264): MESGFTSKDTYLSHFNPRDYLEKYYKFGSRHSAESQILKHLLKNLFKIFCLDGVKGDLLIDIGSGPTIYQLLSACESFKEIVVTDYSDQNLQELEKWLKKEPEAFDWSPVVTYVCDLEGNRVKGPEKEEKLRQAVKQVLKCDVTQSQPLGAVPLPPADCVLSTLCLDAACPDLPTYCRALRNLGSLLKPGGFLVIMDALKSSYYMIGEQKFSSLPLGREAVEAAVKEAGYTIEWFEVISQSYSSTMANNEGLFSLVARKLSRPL
Procedure: NNMT biochemical activity for was evaluated using the Promega Mtase-Glo Methyltransferase Assay kit. Assays were performed in a white, flat-bottomed 96 well plate. […] Reactions were performed for 20 minutes at room temperature. MTase-Glo reagent and MTase-Glo detection solution were added according to manufacturer's instructions and luminescence signal measured with a SpectraMax i3 plate reader and data analyzed with GraphPad Prism version 9. Scheme 16 depicts a visual summary of the Promega MTase-Glo Methyltransferase assay used to assess biochemical activity of novel inhibitors.

[3] = system: K562 (ATCC) cells; assay: Cellular potency: 1-MNA levels in K562 cells after compound incubation; type: cell-based; conditions: Homo sapiens, 24 h incubation
Procedure: Cellular potency was measured in K562 (ATCC) cells via measuring (1-methyl nicotinamide) 1-MNA levels after compound incubation at varying concentrations overnight. Cells were plated at 1 million per well and were incubated for 24 h with compounds at indicated concentrations. Cells were collected by pipetting and extracted with 200 ul acetonitrile containing internal deuterated standard 10 ng/ml d4-1-MNA. Samples were analyzed on an Agilent 64-60 Triple Quad LC/MS with Agilent 1290 Infinity HPLC using a Restek Allure 5 um PPFP column 150 mm×2.1. The mobile phase A was 2.5 mM ammonium formate in water, and mobile phase B was methanol with 0.1% formic acid, delivered at 0.25 mL/min. The capillary voltage was set to 2400V and the nozzle at 300V. The drying gas temperature was 240° C., the drying gas flow rate was 4 L/min, and the nebulizer pressure was 40 psi. The mass spectrometer was run in multiple reaction monitoring mode. Mass transitions were m/z 137.1 à 94.1 for 1-MNA and m/z 141.1 à 98.1 for d4-MNA.

[4] = Permeability assay in Caco-2 cells; conditions: human; for Papp A→B at 2 h, 5 μM / Papp B→A at 2 h, 5 μM / efflux ratio at 2 h, 5 μM: Caco-2, pH 7.4; for recovery at 2 h, 5 µM: Caco-2
Procedure: Preparation of Caco-2 Cells: 50 μL and 25 mL of cell culture medium were added to each well of the Transwell insert and reservoir, respectively. And then the HTS transwell plates were incubated at 37° C., 5% CO2 for 1 hour before cell seeding. […] Cell culture medium was replaced every other day, beginning no later than 24 hours after initial plating.
Preparation of Stock Solutions: The stock solutions of control and test compounds were prepared in DMSO at the concentration of 10 mM. Digoxin, Prazosin and propranolol were used as control compounds in this assay.
Assay Procedures: The Caco-2 plate was removed from the incubator and washed twice with pre-warmed HBSS (10 mM HEPES, pH 7.4), and then incubated at 37° C. for 30 minutes. The stock solutions of controls and Test compounds were diluted in DMSO to get 1 mM solutions and then diluted with HBSS (10 mM HEPES, pH 7.4) to get 5 μM working solutions. The final concentration of DMSO in the incubation system was 0.5%. To determine the rate of drug transport in the apical to basolateral direction. Add 125 μL of the test compounds to the Transwell insert (apical compartment), and transfer 50 μL sample (DO sample) immediately from the apical compartment to a new 96-well plate. Fill the wells in the receiver plate (basolateral compartment) with 235 μL of HBSS (10 mM HEPES, pH 7.4). To determine the rate of drug transport in the basolateral to apical direction. Add 285 μL of the test compounds to the receiver plate wells (basolateral compartment), and transfer 50 μL sample (DO sample) immediately from the basolateral compartment to a new 96-well plate. Fill the Transwell insert (apical compartment) with 75 μL of HBSS (10 mM HEPES, pH 7.4). Time 0 samples were prepared by transferring 50 μL of 5 μM working solution to wells of the 96-deepwell plate, followed by the addition of 200 μL cold acetonitrile containing appropriate internal standards (100 nM alprazolam, 200 nM labetalol, 200 nM caffeine and 200 nM diclofenac). The plates were incubated at 37° C. for 2 hours. […] Samples were vortexed for 5 minutes and then centrifuged at 3,220 g for 40 minutes. An aliquot of 100 μL of the supernatant was mixed with 100 μL of ultra-pure water to use for LC-MS/MS analysis. To determine the Lucifer Yellow leakage after 2 hour transport period, stock solution of Lucifer yellow was prepared in water and diluted with HBSS (10 mM HEPES, pH 7.4) to reach the final concentration of 100 μM. 100 μL of the Lucifer yellow solution was added to each Transwell insert (apical compartment), followed by filling the wells in the receiver plate (basolateral compartment) with 300 μL of HBSS (10 mM HEPES, pH 7.4). The plates were incubated at 37° C. for 30 minutes. 80 μL samples were removed directly from the apical and basolateral wells (using the basolateral access holes) and transferred to wells of new 96 wells plates.

[5] = FIG. 20
Description: Table printed on a drawing sheet, FIG. 20
The patent's description of the figure: FIG. 20 is a table summarizing mean PK parameters of various compound 11 samples after different PO dosages in female C57B16/N mice.
First reader's note: The asterisks on two AUC values are not explained on the sheet; the first grid row holds only the heading 'PK Parameter'.

[6] = Caco-2, pH 7.4, Recovery (%) AP-BL
[7] = Caco-2, pH 7.4, Recovery (%) BL-AP

| Papp A→B at 2 h, 5 μM [4] [×10⁻⁶ cm/s] | Papp B→A at 2 h, 5 μM [4] [×10⁻⁶ cm/s] | efflux ratio at 2 h, 5 μM [4] | recovery at 2 h, 5 µM [4, 6] [%] | recovery at 2 h, 5 µM [4, 7] [%] | Compound | IC50 [2] | further results |
| --- | --- | --- | --- | --- | --- | --- | --- |
| – | – | – | – | – | NC(=O)c1cnc2c(c1)CCN2 [Compound 1] | 105 nM | %Q (Human) [1]: 101.05%; %Q (Mouse) [1]: 88.98%; AUClast [1]: 255 ng·h/mL; CL [1]: 64.2 mL/min/kg; T1/2 [1]: 10.9 min; Vss [1]: 0.904 L/kg |
| – | – | – | – | – | Cc1c(C(N)=O)cnc2c1CC(C)N2 (stereo not shown) [Compound 18] | 848 nM | – |
| – | – | – | – | – | Cc1c(C(N)=O)cnc2c1C[C@@H](C)N2 [Compound 19A] | 28 nM and 28 to 43 nM | IC50 [3]: 12 nM |
| – | – | – | – | – | C[C@H]1Nc2ncc(C(N)=O)cc2[C@@H]1C [Compound 26A] | 20 nM | IC50 [3]: 114 nM |
| 0.67 | 19 | 28.2 | 79.1 | 94.5 | C[C@H]1O[C@@H](O[C@H]2[C@@H](O)C[C@H](O[C@H]3[C@@H](O)C[C@H](O[C@H]4CC[C@@]5(C)[C@H](CC[C@@H]6[C@@H]5C[C@@H](O)[C@]5(C)[C@@H](C7=CC(=O)OC7)CC[C@]65O)C4)O[C@@H]3C)O[C@@H]2C)C[C@H](O)[C@@H]1O [Digoxin] | – | – |
| 9.44 | 28.9 | 3.06 | 77 | 90.4 | COc1cc2nc(N3CCN(C(=O)c4ccco4)CC3)nc(N)c2cc1OC [Prazosin] | – | – |
| 26.9 | 16.6 | 0.62 | 80 | 88.5 | CC(C)NCC(O)COc1cccc2ccccc12 (stereo not shown) [Propranolol] | – | – |
| – | – | – | – | – | C[C@@H]1Cc2cc(C(N)=O)cnc2N1 [compound 11] | – | AUClast (h*ng/mL) [5]: 54,351 h*ng/mL; F(%) [5]: >100%; T1/2 [5]: 41.6 min and 50.5 min and 42.5 min; Tmax [5]: 20 min and 34.8 min |
